19 molecules from patent publication US12685735B2 (Foghorn Therapeutics Inc., priority 2020, dated 2026) can be followed below.

The target in one assay is BRM (Homo sapiens, UniProt P51531). Nature of the assay: ATPase catalytic activity assay of BRM (ADP-Glo). The format is biochemical. The conditions noted are these: for IC50: read-out: BRM IC50 (μM)*. Summed up: (§1)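 Luminescence from ADP formed by BRM or BRG-1 ATPase was detected after a two-step ADP-Glo workup at room temperature. The first step, removing unconsumed ATP, took 40 min; the second, converting ADP to ATP for luciferase, took 60 min.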
Chain of BRM (P51531 whole entry): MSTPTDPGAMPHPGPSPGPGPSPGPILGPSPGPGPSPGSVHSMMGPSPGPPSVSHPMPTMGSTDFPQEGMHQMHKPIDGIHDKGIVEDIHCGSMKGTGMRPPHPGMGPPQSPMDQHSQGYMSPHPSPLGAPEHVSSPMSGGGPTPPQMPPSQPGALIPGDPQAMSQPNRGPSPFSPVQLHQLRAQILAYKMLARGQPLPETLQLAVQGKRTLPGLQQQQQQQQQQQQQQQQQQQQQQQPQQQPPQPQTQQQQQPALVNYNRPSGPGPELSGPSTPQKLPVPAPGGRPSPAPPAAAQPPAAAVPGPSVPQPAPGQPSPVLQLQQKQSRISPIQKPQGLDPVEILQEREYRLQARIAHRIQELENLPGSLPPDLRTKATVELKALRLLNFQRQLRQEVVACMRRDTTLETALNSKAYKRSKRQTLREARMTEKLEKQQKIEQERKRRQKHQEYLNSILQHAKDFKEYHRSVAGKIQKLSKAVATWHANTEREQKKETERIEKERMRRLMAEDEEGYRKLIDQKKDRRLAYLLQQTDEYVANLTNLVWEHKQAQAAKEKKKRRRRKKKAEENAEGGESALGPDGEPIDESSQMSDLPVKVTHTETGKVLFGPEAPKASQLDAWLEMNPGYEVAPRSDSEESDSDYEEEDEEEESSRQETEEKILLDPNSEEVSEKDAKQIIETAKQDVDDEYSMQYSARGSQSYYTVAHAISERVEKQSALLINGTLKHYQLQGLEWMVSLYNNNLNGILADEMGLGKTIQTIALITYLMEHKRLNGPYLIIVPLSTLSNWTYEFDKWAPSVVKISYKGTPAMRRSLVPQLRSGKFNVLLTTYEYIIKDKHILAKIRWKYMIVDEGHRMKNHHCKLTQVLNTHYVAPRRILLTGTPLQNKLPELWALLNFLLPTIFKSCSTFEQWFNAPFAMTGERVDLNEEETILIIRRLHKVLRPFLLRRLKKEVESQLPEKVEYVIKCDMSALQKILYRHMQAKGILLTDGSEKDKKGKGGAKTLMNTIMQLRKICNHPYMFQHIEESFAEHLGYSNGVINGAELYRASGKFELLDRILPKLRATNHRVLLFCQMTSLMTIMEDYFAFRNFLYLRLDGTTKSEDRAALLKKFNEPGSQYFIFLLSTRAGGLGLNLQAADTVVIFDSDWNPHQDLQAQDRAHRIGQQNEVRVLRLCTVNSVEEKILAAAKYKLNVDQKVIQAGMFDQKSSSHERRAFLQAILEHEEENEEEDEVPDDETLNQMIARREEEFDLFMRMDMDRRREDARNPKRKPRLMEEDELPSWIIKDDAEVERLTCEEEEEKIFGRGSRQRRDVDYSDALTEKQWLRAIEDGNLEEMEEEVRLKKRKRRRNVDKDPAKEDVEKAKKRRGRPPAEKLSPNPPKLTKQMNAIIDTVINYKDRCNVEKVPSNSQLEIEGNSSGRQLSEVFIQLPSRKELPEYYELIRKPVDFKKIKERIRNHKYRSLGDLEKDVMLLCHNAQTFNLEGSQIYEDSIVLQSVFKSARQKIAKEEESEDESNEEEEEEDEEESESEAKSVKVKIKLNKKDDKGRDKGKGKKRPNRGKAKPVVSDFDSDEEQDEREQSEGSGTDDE

In a further assay the target is BRG-1 (Homo sapiens, UniProt P51532). Nature of the assay: ATPase catalytic activity assay of BRG-1 (ADP-Glo). It is filed as biochemical. The conditions noted are these: ATPase catalytic activity, ADP-Glo; for IC50: read-out: BRG1 IC50 (μM)*; for Emax: read-out: BRG1 Max % Inhibition. In short, it runs like this: as §1
Chain of BRG-1 (P51532 whole entry): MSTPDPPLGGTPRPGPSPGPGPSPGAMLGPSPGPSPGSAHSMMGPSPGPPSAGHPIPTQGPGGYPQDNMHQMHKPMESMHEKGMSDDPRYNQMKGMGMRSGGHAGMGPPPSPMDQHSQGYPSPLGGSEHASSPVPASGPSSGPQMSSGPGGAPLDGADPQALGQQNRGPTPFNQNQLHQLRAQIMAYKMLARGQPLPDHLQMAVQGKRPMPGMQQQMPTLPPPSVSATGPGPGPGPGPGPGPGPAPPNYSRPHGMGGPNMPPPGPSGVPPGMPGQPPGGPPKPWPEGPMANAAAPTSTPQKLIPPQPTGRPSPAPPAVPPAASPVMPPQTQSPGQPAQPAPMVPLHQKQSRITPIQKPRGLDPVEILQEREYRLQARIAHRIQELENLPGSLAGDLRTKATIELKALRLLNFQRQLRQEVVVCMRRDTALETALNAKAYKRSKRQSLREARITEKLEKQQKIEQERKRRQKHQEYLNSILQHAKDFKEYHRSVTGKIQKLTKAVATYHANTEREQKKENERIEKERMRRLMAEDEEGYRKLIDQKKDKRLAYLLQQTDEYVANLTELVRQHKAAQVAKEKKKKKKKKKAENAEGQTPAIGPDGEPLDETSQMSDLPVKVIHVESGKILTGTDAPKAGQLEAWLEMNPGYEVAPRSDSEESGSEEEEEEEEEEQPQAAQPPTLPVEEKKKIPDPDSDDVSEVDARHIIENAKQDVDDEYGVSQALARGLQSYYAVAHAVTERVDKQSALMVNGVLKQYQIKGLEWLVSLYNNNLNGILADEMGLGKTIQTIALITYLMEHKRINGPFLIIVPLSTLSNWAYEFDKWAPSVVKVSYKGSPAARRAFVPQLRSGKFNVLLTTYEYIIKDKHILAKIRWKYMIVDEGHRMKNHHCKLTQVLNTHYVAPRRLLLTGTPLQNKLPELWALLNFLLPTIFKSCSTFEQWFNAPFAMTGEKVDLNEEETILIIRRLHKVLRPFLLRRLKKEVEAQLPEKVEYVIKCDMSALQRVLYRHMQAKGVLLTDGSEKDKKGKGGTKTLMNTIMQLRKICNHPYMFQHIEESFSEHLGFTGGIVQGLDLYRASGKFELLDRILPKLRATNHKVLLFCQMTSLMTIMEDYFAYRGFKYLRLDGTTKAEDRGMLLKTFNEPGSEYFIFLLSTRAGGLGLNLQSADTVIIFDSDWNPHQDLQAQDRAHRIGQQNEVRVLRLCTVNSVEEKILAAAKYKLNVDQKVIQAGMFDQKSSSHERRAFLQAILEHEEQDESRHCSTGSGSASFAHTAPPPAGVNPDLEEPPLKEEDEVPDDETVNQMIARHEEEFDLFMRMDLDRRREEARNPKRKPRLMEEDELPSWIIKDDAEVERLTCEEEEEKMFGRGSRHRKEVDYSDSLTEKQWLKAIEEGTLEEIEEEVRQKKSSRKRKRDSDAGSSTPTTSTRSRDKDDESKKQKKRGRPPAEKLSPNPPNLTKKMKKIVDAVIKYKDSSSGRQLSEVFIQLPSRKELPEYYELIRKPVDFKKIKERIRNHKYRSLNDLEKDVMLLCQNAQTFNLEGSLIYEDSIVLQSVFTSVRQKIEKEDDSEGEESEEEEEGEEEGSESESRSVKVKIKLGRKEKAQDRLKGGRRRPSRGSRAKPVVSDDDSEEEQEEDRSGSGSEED

On to `C[C@@H]1CN(c2cccc(-c3csc(NC(=O)CNC(=O)c4cnc5c(c4)[C@](C)(C#N)CC5)n3)c2)C[C@H](C)O1` [Compound 170, (R)-5-cyano-N-(2-((4-(3-((cis)-2,6-dimethylmorpholino)phenyl)thiazol-2-yl)amino)-2-oxoethyl)-5-methyl-6,7-dihydro-5H-cyclopenta[b]pyridine-3-carboxamide], for which, on BRM, the “BRM Max % Inhibition” value is listed as over 95% and the IC50 is under 0.1 µM. For the same molecule, at BRG-1, the IC50 is under 0.1 µM and the Emax was over 95%.

For the molecule `C[C@@H]1CN(c2cccc(-c3csc(NC(=O)CNC(=O)c4ccc5c(c4)[C@@](C)(C#N)COC5)n3)c2)C[C@H](C)O1` [Compound 171, (S)-4-cyano-N-(2-((4-(3-((cis)-2,6-dimethylmorpholino)phenyl)thiazol-2-yl)amino)-2-oxoethyl)-4-methylisochroman-6-carboxamide], at BRM, the “BRM Max % Inhibition” value is over 80% and the IC50 lay in the range of 0.1 to 1 µM. Further, on BRG-1, the half-inhibitory concentration (IC50) was 1 to 5 µM and the Emax is over 70%.

Take `C[C@@H]1CN(c2cccc(-c3csc(NC(=O)CNC(=O)c4ccc5c(c4)[C@](C)(C#N)CCO5)n3)c2)C[C@H](C)O1` [Compound 172, (4R)-4-cyano-N-[2-[[4-[3-[(cis)-2,6-dimethylmorpholin-4-yl]phenyl]thiazol-2-yl]amino]-2-oxo-ethyl]-4-methyl-chromane-6-carboxamide]: at BRM, the “BRM Max % Inhibition” value is given as over 95% and the IC50 is under 0.1 µM. Moreover, on BRG-1, the IC50 is under 0.1 µM and the Emax was over 95%.

With `CN1CCOc2ccc(-c3csc(NC(=O)CNC(=O)c4ccc5c(c4)[C@](C)(CO)CC5)n3)cc21` [Compound 173, (R)-3-(hydroxymethyl)-3-methyl-N-(2-((4-(4-methyl-3,4-dihydro-2H-benzo[b][1,4]oxazin-6-yl)thiazol-2-yl)amino)-2-oxoethyl)-2,3-dihydro-1H-indene-5-carboxamide], on BRM, the “BRM Max % Inhibition” value is over 95% and the IC50 was in the range of 0.1 to 1 µM. At BRG-1, the IC50 fell in the range of 0.1 to 1 µM and the Emax was over 80%.

Consider `CN1CCOc2ccc(-c3csc(NC(=O)CNC(=O)c4ccc5c(c4)[C@@](C)(CO)CC5)n3)cc21` [Compound 174, (S)-3-(hydroxymethyl)-3-methyl-N-(2-((4-(4-methyl-3,4-dihydro-2H-benzo[b][1,4]oxazin-6-yl)thiazol-2-yl)amino)-2-oxoethyl)-2,3-dihydro-1H-indene-5-carboxamide], for which, at BRM, the “BRM Max % Inhibition” value is reported as over 80% and the IC50 fell in the range of 0.1 to 1 µM. Besides, on BRG-1, the IC50 is 1 to 5 µM and the Emax was over 50%.

Regarding `Cn1cnc2ccc(-c3csc(NC(=O)CNC(=O)c4ccc5c(c4)[C@](C)(CO)CC5)n3)cc21` [Compound 175, (R)-3-(hydroxymethyl)-3-methyl-N-(2-((4-(1-methyl-1H-benzo[d]imidazol-6-yl)thiazol-2-yl)amino)-2-oxoethyl)-2,3-dihydro-1H-indene-5-carboxamide], at BRM, the “BRM Max % Inhibition” value is listed as over 90% and the IC50 was 0.1 to 1 µM. Besides, on BRG-1, the IC50 fell in the range of 1 to 5 µM and the Emax was over 60%.

Turning to `Cn1ccc2ccc(-c3csc(NC(=O)CNC(=O)c4ccc5c(c4)[C@](C)(CO)CC5)n3)cc2c1=O` [Compound 177, (R)-3-(hydroxymethyl)-3-methyl-N-(2-((4-(2-methyl-1-oxo-1,2-dihydroisoquinolin-7-yl)thiazol-2-yl)amino)-2-oxoethyl)-2,3-dihydro-1H-indene-5-carboxamide], on BRM, the “BRM Max % Inhibition” value is given as over 95% and the IC50 was under 0.1 µM. On BRG-1, the IC50 is 0.1 to 1 µM and the Emax was over 90%.

For the molecule `Cn1ncc2ccc(-c3csc(NC(=O)CNC(=O)c4ccc5c(c4)[C@](C)(CO)CC5)n3)cc21` [Compound 179, (R)-3-(hydroxymethyl)-3-methyl-N-(2-((4-(1-methyl-1H-indazol-6-yl)thiazol-2-yl)amino)-2-oxoethyl)-2,3-dihydro-1H-indene-5-carboxamide], at BRM, the “BRM Max % Inhibition” value was over 80% and the IC50 lay within 0.1 to 1 µM. On BRG-1, the IC50 was over 5 µM and the Emax is over 50%.

For `CN1C(=O)CCc2ccc(-c3csc(NC(=O)CNC(=O)c4ccc5c(c4)[C@](C)(CO)CC5)n3)cc21` [Compound 180, (R)-3-(hydroxymethyl)-3-methyl-N-(2-((4-(1-methyl-2-oxo-1,2,3,4-tetrahydroquinolin-7-yl)thiazol-2-yl)amino)-2-oxoethyl)-2,3-dihydro-1H-indene-5-carboxamide], at BRM, the “BRM Max % Inhibition” value is listed as over 90% and the IC50 was in the range of 0.1 to 1 µM. Further, on BRG-1, the IC50 lay within 1 to 5 µM and the Emax was over 60%.

Regarding `Cn1ccc2ccc(-c3csc(NC(=O)CNC(=O)c4ccc5c(c4)[C@@](C)(CO)CC5)n3)cc2c1=O` [Compound 181, (S)-3-(hydroxymethyl)-3-methyl-N-(2-((4-(2-methyl-1-oxo-1,2-dihydroisoquinolin-7-yl)thiazol-2-yl)amino)-2-oxoethyl)-2,3-dihydro-1H-indene-5-carboxamide], on BRM, the “BRM Max % Inhibition” value was over 90% and the IC50 is 0.1 to 1 µM. Moreover, at BRG-1, the IC50 lay within 1 to 5 µM and the Emax is over 70%.

As for `C[C@@H]1CN(c2cccc(-c3csc(NC(=O)CNC(=O)c4cccc(C5(CO)CC5)c4)n3)n2)C[C@H](C)O1` [Compound 182, N-[2-[[4-[6-[(cis)-2,6-dimethylmorpholin-4-yl]-2-pyridyl]thiazol-2-yl]amino]-2-oxo-ethyl]-3-[1-(hydroxymethyl)cyclopropyl]benzamide], at BRM, the “BRM Max % Inhibition” value is on record as over 95% and the IC50 is under 0.1 µM. At BRG-1, the IC50 fell in the range of 0.1 to 1 µM and the Emax is over 90%.

For `C[C@@H]1CN(c2cccc(-c3csc(NC(=O)CNC(=O)c4cccc(C5(F)COC5)c4)n3)c2)C[C@H](C)O1` [Compound 183, N-(2-((4-(3-((cis)-2,6-dimethylmorpholino)phenyl)thiazol-2-yl)amino)-2-oxoethyl)-3-(3-fluorooxetan-3-yl)benzamide], on BRM, the “BRM Max % Inhibition” value was over 90% and the IC50 was 0.1 to 1 µM. For the same molecule, on BRG-1, the IC50 was 1 to 5 µM and the Emax was over 70%.

On to `C[C@@H]1CN(c2cccc(-c3csc(NC(=O)CNC(=O)c4cccc(C5(O)COC5)c4)n3)c2)C[C@H](C)O1` [Compound 184, N-(2-((4-(3-((2R,6S)-2,6-dimethylmorpholino)phenyl)thiazol-2-yl)amino)-2-oxoethyl)-3-(3-hydroxyoxetan-3-yl)benzamide], for which, on BRM, the “BRM Max % Inhibition” value is recorded as over 90% and the IC50 lay in the range of 0.1 to 1 µM. Moreover, on BRG-1, the IC50 was in the range of 1 to 5 µM and the Emax was over 80%.

As for `Cn1ncc(-c2cccc(-c3csc(NC(=O)CNC(=O)c4cccc(C(C)(C)CO)c4)n3)c2)n1` [Compound 185, 3-(1-hydroxy-2-methylpropan-2-yl)-N-(2-((4-(3-(2-methyl-2H-1,2,3-triazol-4-yl)phenyl)thiazol-2-yl)amino)-2-oxoethyl)benzamide], on BRM, the “BRM Max % Inhibition” value is reported as over 95% and the IC50 is 0.1 to 1 µM. For the same molecule, at BRG-1, the IC50 lay in the range of 1 to 5 µM and the Emax was over 80%.

As for `C[C@@H]1CN(c2cccc(-c3csc(NC(=O)CNC(=O)c4ccc5c(c4)[C@@]4(CCC[C@@H]4O)CC5)n3)c2)C[C@H](C)O1` [Compound 186, (1R,2S)-N-(2-((4-(3-((cis)-2,6-dimethylmorpholino)phenyl)thiazol-2-yl)amino)-2-oxoethyl)-2-hydroxy-2′,3′-dihydrospiro[cyclopentane-1,1′-indene]-6′-carboxamide], on BRM, the “BRM Max % Inhibition” value is over 95% and the IC50 is under 0.1 µM. At BRG-1, the IC50 lay within 1 to 5 µM and the Emax was over 70%.

For `C[C@@H]1CN(c2cccc(-c3csc(NC(=O)CNC(=O)c4cccc(C5(C)COC5)c4)n3)n2)C[C@H](C)O1` [Compound 187, N-[2-[[4-[6-[(cis)-2,6-dimethylmorpholin-4-yl]-2-pyridyl]thiazol-2-yl]amino]-2-oxo-ethyl]-3-(3-methyloxetan-3-yl)benzamide], at BRM, the “BRM Max % Inhibition” value is recorded as over 95% and the IC50 was under 0.1 µM. Besides, at BRG-1, the IC50 fell in the range of 0.1 to 1 µM and the Emax was over 70%.

As to `C[C@@H]1CN(c2cccc(-c3csc(NC(=O)CNC(=O)c4ccc5c(c4)[C@@]4(CCC[C@H]4O)CC5)n3)c2)C[C@H](C)O1` [Compound 188, (1R,2R)-N-(2-((4-(3-((cis)-2,6-dimethylmorpholino)phenyl)thiazol-2-yl)amino)-2-oxoethyl)-2-hydroxy-2′,3′-dihydrospiro[cyclopentane-1,1′-indene]-6′-carboxamide], at BRM, the “BRM Max % Inhibition” value is over 90% and the IC50 was 0.1 to 1 µM. Besides, on BRG-1, the IC50 was in the range of 1 to 5 µM and the Emax was over 50%.

For `C[C@@H]1CN(c2cccc(-c3csc(NC(=O)CNC(=O)c4ccc5c(c4)[C@]4(CCC[C@@H]4O)CC5)n3)c2)C[C@H](C)O1` [Compound 189, (1S,2S)-N-(2-((4-(3-((cis)-2,6-dimethylmorpholino)phenyl)thiazol-2-yl)amino)-2-oxoethyl)-2-hydroxy-2′,3′-dihydrospiro[cyclopentane-1,1′-indene]-6′-carboxamide], on BRM, the “BRM Max % Inhibition” value is given as over 90% and the IC50 lay within 0.1 to 1 µM. Besides, at BRG-1, the IC50 lay within 1 to 5 µM and the Emax was over 50%.

On to `Cc1cnc(O)c(-c2cccc(-c3csc(NC(=O)CNC(=O)c4ccc5c(c4)[C@@](C)(CO)CC5)n3)n2)c1` [Compound 190, (S)-N-(2-((4-(2′-hydroxy-5′-methyl-[2,3′-bipyridin]-6-yl)thiazol-2-yl)amino)-2-oxoethyl)-3-(hydroxymethyl)-3-methyl-2,3-dihydro-1H-indene-5-carboxamide], for which, at BRM, the “BRM Max % Inhibition” value is on record as over 90% and the IC50 was in the range of 0.1 to 1 µM. For the same molecule, at BRG-1, the IC50 lay within 0.1 to 1 µM and the Emax was over 70%.
